Measured values taken from US4740504A, “Antihyperlipidemic amine boranes” (United States Borax & Chemical Corp., priority 1987, dated 1988).

Biological target: T1, acyl CoA cholesterol acyl transferase (Mus musculus, UniProt O88908)
T1 construct: from tissue
T1 sequence (O88908 1-525): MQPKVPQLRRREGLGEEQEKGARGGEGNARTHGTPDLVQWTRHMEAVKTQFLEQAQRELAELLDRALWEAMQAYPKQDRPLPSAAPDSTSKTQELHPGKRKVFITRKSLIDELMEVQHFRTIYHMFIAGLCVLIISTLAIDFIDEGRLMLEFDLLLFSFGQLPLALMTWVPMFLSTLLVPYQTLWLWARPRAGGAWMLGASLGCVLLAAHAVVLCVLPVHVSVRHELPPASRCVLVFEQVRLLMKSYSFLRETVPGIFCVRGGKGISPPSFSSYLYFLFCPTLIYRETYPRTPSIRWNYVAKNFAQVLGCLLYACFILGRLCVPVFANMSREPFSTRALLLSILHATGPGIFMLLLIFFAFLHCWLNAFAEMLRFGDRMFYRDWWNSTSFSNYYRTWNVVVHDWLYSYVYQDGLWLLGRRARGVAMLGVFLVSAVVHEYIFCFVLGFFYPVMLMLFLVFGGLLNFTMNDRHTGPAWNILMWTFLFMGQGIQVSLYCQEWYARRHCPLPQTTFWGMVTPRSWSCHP
Test: Enzyme activity after in vivo dosing: acyl CoA cholesterol acyl transferase
Conditions: 8 mg/kg/day

Question: `[BH3-][N+](C)(C)CCCCCCCCCCCCCCCCCC` [I, N-n-Octadecyl-N,N-Dimethylamine Borane] was tested. Which “lowering of acyl CoA cholesterol acyl transferase activity” value did it give?
Answer: 52%
